Assay results reported in ChEMBL document CHEMBL1156502, “Stabilized immune modulatory RNA compounds as agonists of Toll-like receptors 7 and 8” (Proc Natl Acad Sci U S A, 2007).
Activity calls are given as the source filed them. No cut-off for these calls is given here.

What was measured:
Mus musculus [1] = test: Induction of IL12 secretion in sc dosed C57BL/6 mouse serum after 2 hrs by ELISA; assay type: functional, organism-based
Mus musculus [2] = test: Induction of cytokine secretion in C57BL/6 mouse plasma at 100 mg/kg, sc by Luminex Multiplex assay; assay type: functional, organism-based; set-up: dose 100 mg/kg
Mus musculus [3] = test: Induction of chemokine secretion in C57BL/6 mouse plasma at 100 mg/kg, sc by Luminex Multiplex assay; assay type: functional, organism-based; set-up: dose 100 mg/kg
Mus musculus [4] = test: Induction of IL10 secretion in C57BL/6 mouse plasma at 100 mg/kg, sc by Luminex Multiplex assay; assay type: functional, organism-based; set-up: dose 100 mg/kg
Mus musculus [5] = test: Induction of IP10 secretion in C57BL/6 mouse plasma at 100 mg/kg, sc by Luminex Multiplex assay; assay type: functional, organism-based; set-up: dose 100 mg/kg
Mus musculus [6] = test: Induction of IFN-gamma-induced monoamine secretion in C57BL/6 mouse plasma at 100 mg/kg, sc by Luminex Multiplex assay; assay type: functional, organism-based; set-up: dose 100 mg/kg
Mus musculus [7] = test: Induction of MCP1 secretion in C57BL/6 mouse plasma at 100 mg/kg, sc by Luminex Multiplex assay; assay type: functional, organism-based; set-up: dose 100 mg/kg
Mus musculus [8] = test: Induction of IL12 secretion in C57BL/6 mouse plasma at 100 mg/kg, sc by Luminex Multiplex assay; assay type: functional, organism-based; set-up: dose 100 mg/kg
Cynomolgus monkey [9] = test: Induction of immune response in cynomolgus monkey assessed as increase in number of peripheral blood neutrophils at 5 mg/kg, sc within 24 hrs; assay type: functional, organism-based; set-up: dose 5 mg/kg; details: Macaca fascicularis
Cynomolgus monkey [10] = test: Induction of immune response in cynomolgus monkey assessed as increase in number of peripheral blood monocytes at 5 mg/kg, sc within 24 hrs; assay type: functional, organism-based; set-up: dose 5 mg/kg; details: Macaca fascicularis
Cynomolgus monkey [11] = test: Increase in CD69 expression on CD3+ lymphocytes in cynomolgus monkey at 5 mg/kg, sc after 24 hrs by flow cytometry relative to control; assay type: functional, organism-based; set-up: dose 5 mg/kg; details: Macaca fascicularis
Cynomolgus monkey [12] = test: Increase in CD69 expression on CD16+ NK cells in cynomolgus monkey at 5 mg/kg, sc after 24 hrs by flow cytometry relative to control; assay type: functional, organism-based; set-up: dose 5 mg/kg; details: Macaca fascicularis
Cynomolgus monkey [13] = test: Increase in CD69 expression on CD14+ monocytes in cynomolgus monkey at 5 mg/kg, sc after 24 hrs by flow cytometry relative to control; assay type: functional, organism-based; set-up: dose 5 mg/kg; details: Macaca fascicularis
Cynomolgus monkey [14] = test: Elevation of IFNalpha in cynomolgus monkey plasma at 5 mg/kg, sc after 24 hrs; assay type: functional, organism-based; set-up: dose 5 mg/kg; details: Macaca fascicularis
Cynomolgus monkey [15] = test: Elevation of IP10 in cynomolgus monkey plasma at 5 mg/kg, sc after 24 hrs; assay type: functional, organism-based; set-up: dose 5 mg/kg; details: Macaca fascicularis
Dendritic cell = test: Induction of IFNalpha secretion in human plasmacytoid dendritic cells at 200 ug/ml after 24 hrs by Luminex Multiplex assay; assay type: functional
[16] = Stability in 1% human serum assessed as full length product after 10 mins; assay type: ADME, cell-free; details: read-out: Stability
[17] = biological target: T1, Toll-like receptor 8 (Homo sapiens) (UniProt Q9NR97); test: Activation of human TLR8 expressed in HEK293 cells assessed as increase in NF-kappaB activation at 100 ug/ml by SEAP assay; assay type: cell-based
T1 sequence (whole entry): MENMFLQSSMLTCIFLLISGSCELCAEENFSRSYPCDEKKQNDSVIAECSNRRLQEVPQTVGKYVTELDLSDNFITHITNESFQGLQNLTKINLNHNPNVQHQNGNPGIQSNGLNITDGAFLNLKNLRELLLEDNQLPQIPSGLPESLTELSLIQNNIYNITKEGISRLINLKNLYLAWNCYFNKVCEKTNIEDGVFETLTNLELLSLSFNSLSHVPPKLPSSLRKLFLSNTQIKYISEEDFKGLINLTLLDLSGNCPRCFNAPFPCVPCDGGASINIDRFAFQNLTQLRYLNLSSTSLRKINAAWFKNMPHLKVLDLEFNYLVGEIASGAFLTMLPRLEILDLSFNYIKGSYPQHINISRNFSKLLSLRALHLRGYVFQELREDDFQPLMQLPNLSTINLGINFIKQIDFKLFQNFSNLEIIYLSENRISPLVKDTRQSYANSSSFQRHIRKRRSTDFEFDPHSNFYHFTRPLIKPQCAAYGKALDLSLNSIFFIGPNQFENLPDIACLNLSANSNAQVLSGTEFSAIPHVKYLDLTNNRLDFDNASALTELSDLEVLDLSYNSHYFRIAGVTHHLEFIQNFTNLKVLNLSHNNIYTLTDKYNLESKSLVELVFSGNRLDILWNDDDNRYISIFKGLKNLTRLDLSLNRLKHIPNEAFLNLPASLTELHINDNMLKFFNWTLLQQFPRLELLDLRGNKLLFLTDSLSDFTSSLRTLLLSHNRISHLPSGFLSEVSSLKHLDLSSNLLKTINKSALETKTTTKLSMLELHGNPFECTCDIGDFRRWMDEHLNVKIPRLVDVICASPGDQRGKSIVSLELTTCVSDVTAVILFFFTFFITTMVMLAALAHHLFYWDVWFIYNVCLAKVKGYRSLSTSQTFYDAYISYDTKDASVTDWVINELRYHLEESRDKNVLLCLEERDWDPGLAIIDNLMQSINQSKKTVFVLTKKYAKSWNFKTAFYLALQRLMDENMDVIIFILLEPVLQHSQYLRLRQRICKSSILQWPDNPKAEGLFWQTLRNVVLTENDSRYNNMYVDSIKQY

[18] = biological target: T2, Toll-like receptor 7 (Homo sapiens) (UniProt Q9NYK1); test: Activation of human TLR7 expressed in HEK293 cells assessed as increase in NF-kappaB activation at 100 ug/ml by SEAP assay; assay type: cell-based
T2 sequence (whole entry): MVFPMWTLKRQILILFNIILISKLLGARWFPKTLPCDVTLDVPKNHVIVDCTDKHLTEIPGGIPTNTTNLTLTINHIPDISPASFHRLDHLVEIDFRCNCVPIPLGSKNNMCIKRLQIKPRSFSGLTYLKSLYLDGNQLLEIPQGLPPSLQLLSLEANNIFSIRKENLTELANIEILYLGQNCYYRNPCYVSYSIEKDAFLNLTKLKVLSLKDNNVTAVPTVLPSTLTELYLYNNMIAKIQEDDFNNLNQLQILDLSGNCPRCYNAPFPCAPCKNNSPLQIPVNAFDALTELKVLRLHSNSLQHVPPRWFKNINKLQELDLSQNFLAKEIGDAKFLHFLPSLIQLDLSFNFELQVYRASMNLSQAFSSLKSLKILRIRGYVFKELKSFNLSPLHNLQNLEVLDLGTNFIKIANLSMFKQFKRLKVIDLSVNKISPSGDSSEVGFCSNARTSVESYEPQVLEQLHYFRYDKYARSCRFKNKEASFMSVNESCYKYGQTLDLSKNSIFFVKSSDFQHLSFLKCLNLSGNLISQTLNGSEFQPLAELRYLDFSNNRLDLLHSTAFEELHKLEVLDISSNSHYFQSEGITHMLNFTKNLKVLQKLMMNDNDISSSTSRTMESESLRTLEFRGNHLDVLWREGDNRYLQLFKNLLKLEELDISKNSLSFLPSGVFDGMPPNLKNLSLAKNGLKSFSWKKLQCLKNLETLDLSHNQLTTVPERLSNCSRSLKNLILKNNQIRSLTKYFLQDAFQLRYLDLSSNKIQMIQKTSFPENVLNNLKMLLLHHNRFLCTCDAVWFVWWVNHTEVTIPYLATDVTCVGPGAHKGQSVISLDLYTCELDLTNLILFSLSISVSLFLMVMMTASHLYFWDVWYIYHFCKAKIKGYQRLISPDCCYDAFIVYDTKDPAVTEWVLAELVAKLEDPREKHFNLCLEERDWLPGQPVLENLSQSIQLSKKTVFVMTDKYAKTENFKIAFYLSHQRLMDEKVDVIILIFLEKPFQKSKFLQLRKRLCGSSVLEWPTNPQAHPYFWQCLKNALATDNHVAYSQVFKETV

spleen [19] = test: Induction of cytokine secretion in C57BL/6 mouse spleen cells at 100 ug/ml after 24 hrs by Luminex Multiplex assay; assay type: functional, cell-based
spleen [20] = test: Induction of chemokine secretion in C57BL/6 mouse spleen cells 100 ug/ml after 24 hrs by Luminex Multiplex assay; assay type: functional, cell-based

Nc1ccn([C@@H]2O[C@H](COP(O)(=S)O[C@H]3[C@@H](O)[C@H](n4ccc(=O)[nH]c4=O)O[C@@H]3COP(O)(=S)O[C@H]3[C@@H](O)[C@H](n4ccc(=O)[nH]c4=O)O[C@@H]3COP(O)(=S)O[C@H]3[C@@H](O)[C@H](n4ccc(N)nc4=O)O[C@@H]3COP(O)(=S)O[C@H]3[C@@H](O)[C@H](n4ccc5c(=O)[nH]c(N)nc54)O[C@@H]3COP(O)(=S)O[C@H]3[C@@H](O)[C@H](n4ccc(=O)[nH]c4=O)O[C@@H]3COP(O)(=S)O[C@H]3[C@@H](O)[C@H](n4ccc(N)nc4=O)O[C@@H]3COP(O)(=S)O[C@H]3[C@@H](O)[C@H](n4ccc5c(=O)[nH]c(N)nc54)O[C@@H]3COP(O)(=S)O[C@H]3[C@@H](O)[C@H](n4ccc(=O)[nH]c4=O)O[C@@H]3CO)[C@@H](OP(O)(=S)OC[C@H]3O[C@@H](n4ccc(=O)[nH]c4=O)[C@H](O)[C@@H]3OP(O)(=S)OC[C@H]3O[C@@H](n4ccc5c(=O)[nH]c(N)nc54)[C@H](O)[C@@H]3OP(O)(=S)OCC(O)COP(O)(=S)O[C@H]3[C@@H](O)[C@H](n4ccc5c(=O)[nH]c(N)nc54)O[C@@H]3COP(O)(=S)O[C@H]3[C@@H](O)[C@H](n4ccc(=O)[nH]c4=O)O[C@@H]3COP(O)(=S)O[C@H]3[C@@H](O)[C@H](n4ccc(N)nc4=O)O[C@@H]3COP(O)(=S)O[C@H]3[C@@H](O)[C@H](n4ccc(=O)[nH]c4=O)O[C@@H]3COP(O)(=S)O[C@H]3[C@@H](O)[C@H](n4ccc(=O)[nH]c4=O)O[C@@H]3COP(O)(=S)O[C@H]3[C@@H](O)[C@H](n4ccc(N)nc4=O)O[C@@H]3COP(O)(=S)O[C@H]3[C@@H](O)[C@H](n4ccc5c(=O)[nH]c(N)nc54)O[C@@H]3COP(O)(=S)O[C@H]3[C@@H](O)[C@H](n4ccc(=O)[nH]c4=O)O[C@@H]3COP(O)(=S)O[C@H]3[C@@H](O)[C@H](n4ccc(N)nc4=O)O[C@@H]3COP(O)(=S)O[C@H]3[C@@H](O)[C@H](n4ccc5c(=O)[nH]c(N)nc54)O[C@@H]3COP(O)(=S)O[C@H]3[C@@H](O)[C@H](n4ccc(=O)[nH]c4=O)O[C@@H]3CO)[C@H]2O)c(=O)n1 (stereo partly specified)
Activity (Mus musculus [1]): Dose-dependent effect | Activity (Mus musculus [2]): inactive | Activity (Mus musculus [3]): inactive | Activity (Mus musculus [4]): Active | Activity (Mus musculus [5]): Active | Activity (Mus musculus [6]): Active | Activity (Mus musculus [7]): Active | Activity (Mus musculus [8]): Active | Activity (Cynomolgus monkey [9]): Active | Activity (Cynomolgus monkey [10]): Active | Activity (Cynomolgus monkey [11]): Active | Activity (Cynomolgus monkey [12]): Active | Activity (Cynomolgus monkey [13]): Active | Activity (Cynomolgus monkey [14]): Active | Activity (Cynomolgus monkey [15]): Active | Activity (Dendritic cell): Active | remaining at 10 min [16]: 57% | Activity [17]: Active | Activity [18]: Active | Activity (spleen [19]): Dose-dependent effect | Activity (spleen [20]): Dose-dependent effect
